US20260042867A1, “ANTIBODY REPURPOSING” (priority 2022, published 2026)
Where two headings read alike, the source gives them in different places.

Key:
Format in all cases: binding, SARS-COV-2
SRBD - omicron = target: SRBD - omicron
[1] = target: SARS-Cov2 SRBD and anti-alpha-Gal antibody (Severe acute respiratory syndrome coronavirus 2, UniProt P0DTC2)
[2] = tested on: Omicron S1/S2 ECD and anti-alpha-Gal antibody

| Structure (SMILES) | Kd (SRBD - omicron; BLI, SRBD - omicron, global 1:2 fitting) | Kd (SRBD - omicron) | antibody repurposing of alpha Gal antibodies (ELISA signal) [1] | antibody repurposing of alpha Gal antibodies (ELISA signal) [2] |
| --- | --- | --- | --- | --- |
| COC[C@H](NC(=O)[C@@H](CCCCN)NC(=O)[C@H]1c2ccccc2C(=O)N(CCCNC(=O)Cc2ccc(CNC(=O)[C@@H](NC(=O)[C@@H](CCCCN)NC(=O)[C@H]3c4ccccc4C(=O)N(CCCNC(=O)Cc4ccc(CNC(=O)[C@H](CC5CC5)NC(=O)[C@H]5c6ccccc6C(=O)N(CCCNC(=O)[C@@H](C)NC(=O)Cc6ccc(CNC(=O)[C@H](C)NC(=O)[C@@H](CCCCN)NC(=O)[C@H]7c8ccccc8C(=O)N(CCCNC(=O)Cc8ccc(CNC(=O)[C@H](C)NC(=O)CNC(=O)[C@H]9c%10ccccc%10C(=O)N(CCCNC(=O)Cc%10ccc(CNC(=O)[C@H](C)NC(=O)[C@@H](CCC(=O)O)NC(=O)[C@H]%11c%12ccccc%12C(=O)N(CCCNC(=O)Cc%12ccc(CNC(=O)[C@H](Cc%13ccc(F)cc%13)NC(=O)[C@H]%13c%14ccccc%14C(=O)N(CCCNC(=O)[C@@H](CCC(=O)O)NC(=O)Cc%14ccc(CNC(=O)[C@H](C)NC(=O)CNC(=O)[C@H]%15c%16ccccc%16C(=O)N(CCCN)[C@@H]%15c%15ccc(CCC(=O)O)cc%15)cc%14)[C@@H]%13c%13cccc(Oc%14ccccc%14)c%13)cc%12)[C@@H]%11c%11ccc(CCC(=O)O)cc%11)cc%10)[C@@H]9c9cccnc9)cc8)[C@@H]7c7ccc(CCC(=O)O)cc7)cc6)[C@@H]5c5cccc(Oc6ccccc6)c5)cc4)[C@@H]3c3ccccc3)C(C)C)cc2)[C@@H]1c1ccc(O)cc1)C(=O)NCc1ccc(CC(N)=O)cc1 [Technein 16838-89-7] | 7 nM | – | – | – |
| COC[C@H](NC(=O)[C@H]1c2ccccc2C(=O)N(CCCNC(=O)[C@@H](C)NC(=O)Cc2ccc(CNC(=O)[C@H](Cc3ccc(F)cc3)NC(=O)[C@H]3c4ccccc4C(=O)N(CCCNC(=O)CNC(=O)Cc4ccc(CNC(=O)[C@H](Cc5ccc(F)cc5)NC(=O)[C@H]5c6ccccc6C(=O)N(CCCNC(=O)[C@@H](CCC(=O)O)NC(=O)Cc6ccc(CNC(=O)[C@H](C)NC(=O)[C@H]7c8ccccc8C(=O)N(CCCNC(=O)[C@@H](C)N)[C@@H]7c7ccc(CCC(=O)O)cc7)cc6)[C@@H]5c5cccc(Oc6ccccc6)c5)cc4)[C@@H]3c3ccc(O)cc3)cc2)[C@@H]1c1ccc(O)cc1)C(=O)NCc1ccc(CC(=O)NCC(=O)NCCCN2C(=O)c3ccccc3[C@H](C(=O)N[C@@H](CC3CC3)C(=O)NCc3ccc(CC(=O)N[C@H](CCC(=O)O)C(=O)NCCCN4C(=O)c5ccccc5[C@H](C(=O)N[C@@H](C)C(=O)NCc5ccc(CC(=O)NCCCN6C(=O)c7ccccc7[C@H](C(=O)N[C@H](CCCCN)C(=O)N[C@H](C(=O)NCc7ccc(CC(=O)N[C@H](C)C(=O)NCCCN8C(=O)c9ccccc9[C@H](C(=O)N[C@@H](CC9CC9)C(=O)NCc9ccc(CC(N)=O)cc9)[C@H]8c8ccc(CCC(=O)O)cc8)cc7)C(C)C)[C@H]6c6ccccc6)cc5)[C@H]4c4cccnc4)cc3)[C@H]2c2cccnc2)cc1 [Technein 16838-89-8] | – | 4 nM | significantly lower levels of antibody repurposing | significantly lower levels of antibody repurposing |
